Data taken from patent US20110039762A1, “TARGETED ANTIMICROBIAL MOIETIES” (C3 JIAN, INC., priority 2009, published 2011).
Entries after “also recorded” stand apart in the source; their conditions may differ.

Test system: microorganisms (e.g., bacteria, yeasts, fungi)
Assay: Targeting peptide binding to target microorganisms (Table 3)
Details: microorganism the targeting peptide binds; binding in aqueous buffers varied by peptide solubility, preferably 1x PBS

## 1T-36 (VYRHLRFIDGKLVEIRLERK; Peptide with targeting and/or antimicrobial activity) [Peptide 1T-36]
  Target(s): S. aureus; also recorded: S. epidermidis; also recorded: C. jeikeium; also recorded: C. xerosis; also recorded: C. striatum; also recorded: P. aeruginosa

## 1T-37 (YIVGALVILAVAGLIYSMLRKA; Peptide with targeting and/or antimicrobial activity) [Peptide 1T-37]
  Target(s): S. mutans; also recorded: S. aereus; also recorded: S. epidermidis; also recorded: C. jeikeium; also recorded: C. xerosis; also recorded: C. striatum; also recorded: P. aeruginosa

## 1T-38 (VMFVLTRGRSPRPMIPAY; Peptide with targeting and/or antimicrobial activity) [Peptide 1T-38]
  Target(s): S. mutans; also recorded: S. aereus; also recorded: S. epidermidis; also recorded: C. jeikeium; also recorded: C. xerosis; also recorded: C. striatum; also recorded: P. aeruginosa

## 1T-39 (FGFCVWMYQLLAGPPGPPA; Peptide with targeting and/or antimicrobial activity) [Peptide 1T-39]
  Target(s): S. mutans; also recorded: P. aeruginosa

## 1T-40 (QRVSLWSEVEHEFR; Peptide with targeting and/or antimicrobial activity) [Peptide 1T-40]
  Target(s): S. mutans; also recorded: P. aeruginosa

## 1T-41 (KRGSKIVIAIAVVLIVLAGVWVW; Peptide with targeting and/or antimicrobial activity) [Peptide 1T-41]
  Target(s): S. mutans; also recorded: S. aureus; also recorded: S. epidermidis; also recorded: C. jeikeium; also recorded: C. striatum; also recorded: P. aeruginosa

## 1T-42 (TVLDWLSLALATGLFVYLLVALLRADRA; Peptide with targeting and/or antimicrobial activity) [Peptide 1T-42]
  Target(s): S. aureus; also recorded: S. epidermidis; also recorded: C. xerosis; also recorded: C. striatum; also recorded: P. aeruginosa

## 1T-43 (DRCLSVLSWSPPKVSPLI; Peptide with targeting and/or antimicrobial activity) [Peptide 1T-43]
  Target(s): C. jeikium; also recorded: P. aeruginosa

## 1T-44 (DPALADFAAGMRAQVRT; Peptide with targeting and/or antimicrobial activity) [Peptide 1T-44]
  Target(s): S. mutans; also recorded: S. aureus; also recorded: S. epidermidis; also recorded: C. jeikeium; also recorded: C. striatum; also recorded: P. aeruginosa

## 1T-45 (WTKPSFTDLRLGFEVTLYFANR; Peptide with targeting and/or antimicrobial activity) [Peptide 1T-45]
  Target(s): S. aureus; also recorded: S. epidermidis; also recorded: C. striatum; also recorded: P. aeruginosa

## 1T-46 (FSFKQRVMFRKEVERLR; Peptide with targeting and/or antimicrobial activity) [Peptide 1T-46]
  Target(s): S. aureus; also recorded: S. epidermidis; also recorded: C. jeikeium; also recorded: C. xerosis; also recorded: C. striatum; also recorded: P. aeruginosa

## 1T-47 (VIKISVPGQVQMLIP; Peptide with targeting and/or antimicrobial activity) [Peptide 1T-47]
  Target(s): S. mutans; also recorded: S. epidermidis; also recorded: P. aeruginosa

## 1T-48 (KLQVHHGRATHTLLLQPPLCAPGTIR; Peptide with targeting and/or antimicrobial activity) [Peptide 1T-48]
  Target(s): S. aureus; also recorded: S. epidermidis; also recorded: C. jeikeium; also recorded: C. xerosis; also recorded: C. striatum; also recorded: P. aeruginosa

## 1T-49 (SLVRIHDQQPWVTRGAFIDAARTCS; Peptide with targeting and/or antimicrobial activity) [Peptide 1T-49]
  Target(s): S. aureus; also recorded: S. epidermidis; also recorded: C. jeikeium; also recorded: P. aeruginosa

## 1T-50 (HSDEPIPNILFKSDSVH; Peptide with targeting and/or antimicrobial activity) [Peptide 1T-50]
  Target(s): P. aeruginosa

## 1T-51 (GKPKRMPAEFIDGYGQALLAGA; Peptide with targeting and/or antimicrobial activity) [Peptide 1T-51]
  Target(s): S. aureus; also recorded: P. aeruginosa

## 1T-52 (DEYPAKLPLSDKGATEPRRH; Peptide with targeting and/or antimicrobial activity) [Peptide 1T-52]
  Target(s): S. aureus; also recorded: C. xerosis; also recorded: P. aeruginosa

## 1T-53 (SDILAEMFEKGELQTLVKDAAAKANA; Peptide with targeting and/or antimicrobial activity) [Peptide 1T-53]
  Target(s): P. aeruginosa

## 1T-54 (RWVSCNPSWRIQ; Peptide with targeting and/or antimicrobial activity) [Peptide 1T-54]
  Target(s): S. epidermidis; also recorded: C. xerosis; also recorded: C. striatum; also recorded: P. aeruginosa

## 1T-55 (NHKTLKEWKAKWGPEAVESWATLLG; Peptide with targeting and/or antimicrobial activity) [Peptide 1T-55]
  Target(s): C. xerosis; also recorded: P. aeruginosa

## 1T-56 (LALIGAGIWMIRKG; Peptide with targeting and/or antimicrobial activity) [Peptide 1T-56]
  Target(s): C. xerosis; also recorded: P. aeruginosa

## 1T-57 (RLEYRRLETQVEENPESGRRPMRG; Peptide with targeting and/or antimicrobial activity) [Peptide 1T-57]
  Target(s): P. aeruginosa

## 1T-58 (CDDLHALERAGKLDALLSA; Peptide with targeting and/or antimicrobial activity) [Peptide 1T-58]
  Target(s): P. aeruginosa

## 1T-59 (AVGNNLGKDNDSGHRGKKHRKHKHR; Peptide with targeting and/or antimicrobial activity) [Peptide 1T-59]
  Target(s): S. aureus; also recorded: S. epidermidis; also recorded: P. aeruginosa

## 1T-60 (YLTSLGLDAAEQAQGLLTILKG; Peptide with targeting and/or antimicrobial activity) [Peptide 1T-60]
  Target(s): S. aureus; also recorded: S. epidermidis; also recorded: C. jeikeium; also recorded: C. striatum; also recorded: P. aeruginosa

## 1T-61 (HATLLPAVREAISRQLLPALVPRG; Peptide with targeting and/or antimicrobial activity) [Peptide 1T-61]
  Target(s): P. aeruginosa

## 1T-62 (GCKGCAQRDPCAEPEPYFRLR; Peptide with targeting and/or antimicrobial activity) [Peptide 1T-62]
  Target(s): S. epidermidis; also recorded: P. aeruginosa

## 1T-63 (EPLILKELVRNLFLFCYARALR; Peptide with targeting and/or antimicrobial activity) [Peptide 1T-63]
  Target(s): S. aureus; also recorded: S. epidermidis; also recorded: C. jeikeium; also recorded: C. xerosis; also recorded: C. striatum; also recorded: P. aeruginosa

## 1T-64 (QTVHHIHMHVLGQRQMHWPPG; Peptide with targeting and/or antimicrobial activity) [Peptide 1T-64]
  Target(s): S. aureus; also recorded: S. epidermidis; also recorded: C. jeikeium; also recorded: C. xerosis; also recorded: C. striatum; also recorded: P. aeruginosa

## 1T-65 (HARAAVGVAELPRGAAVEVELIAAVRP; Peptide with targeting and/or antimicrobial activity) [Peptide 1T-65]
  Target(s): S. mutans; also recorded: S. aureus; also recorded: S. epidermidis; also recorded: C. jeikeium; also recorded: C. xerosis; also recorded: C. striatum; also recorded: P. aeruginosa

## 1T-66 (DTDCLSRAYAQRIDELDKQYAGIDKPL; Peptide with targeting and/or antimicrobial activity) [Peptide 1T-66]
  Target(s): S. mutans; also recorded: S. aureus; also recorded: S. epidermidis; also recorded: C. jeikeium; also recorded: C. xerosis; also recorded: C. striatum; also recorded: P. aeruginosa

## 1T-67 (GQRQRLTCGRVSGCSEGPSREAAR; Peptide with targeting and/or antimicrobial activity) [Peptide 1T-67]
  Target(s): S. aureus; also recorded: S. epidermidis; also recorded: C. jeikeium; also recorded: C. xerosis; also recorded: C. striatum; also recorded: P. aeruginosa

## 1T-68 (GGTKEIVYQRG; Peptide with targeting and/or antimicrobial activity) [Peptide 1T-68]
  Target(s): S. mutans; also recorded: S. aureus; also recorded: C. jeikeium; also recorded: C. xerosis; also recorded: C. striatum; also recorded: P. aeruginosa

## 1T-69 (ILSQEADRKKLF; Peptide with targeting and/or antimicrobial activity) [Peptide 1T-69]
  Target(s): S. mutans; also recorded: P. aeruginosa

## 1T-70 (NRQAQGERAHGEQQG; Peptide with targeting and/or antimicrobial activity) [Peptide 1T-70]
  Target(s): S. aureus; also recorded: C. jeikeium; also recorded: P. aeruginosa

## 1T-71 (KIDTNQWPPNKEG; Peptide with targeting and/or antimicrobial activity) [Peptide 1T-71]
  Target(s): P. aeruginosa

## 1T-72 (EPTDGVACKER; Peptide with targeting and/or antimicrobial activity) [Peptide 1T-72]
  Target(s): P. aeruginosa

## 1T-73 (GWWEELLHETILSKFKITKALELPIQL; Peptide with targeting and/or antimicrobial activity) [Peptide 1T-73]
  Target(s): S. pneumoniae

## 1T-74 (DIDWGRKISCAAGVAYGAIDGCATTV; Peptide with targeting and/or antimicrobial activity) [Peptide 1T-74]
  Target(s): S. pneumoniae

## 1T-75 (GVARGLQLGIKTRTQWGAATGAA; Peptide with targeting and/or antimicrobial activity) [Peptide 1T-75]
  Target(s): S. pneumoniae

## 1T-76 (EMRLSKFFRDFILWRKK; Peptide with targeting and/or antimicrobial activity) [Peptide 1T-76]
  Target(s): S. pneumoniae

## 1T-77 (EMRISRIILDFLFLRKK; Peptide with targeting and/or antimicrobial activity) [Peptide 1T-77]
  Target(s): S. pneumoniae
